Test results: patent US11376264B2, “Use of bromodomain-containing protein 9 antagonists in combination with vitamin D receptor agonists in diabetes treatment” (Salk Institute for Biological Studies, priority 2017, dated 2022)
Entries after “also recorded” stand apart in the source; their conditions may differ.

Key:
VDR-PCAF interaction = assay: Immunoprecipitation of endogenous PCAF with HA-VDR in INS1 cells; assay type: cell-based, rat; settings: INS1 cells expressing HA-VDR, 1 hr after treatment
Description: Immunoprecipitations were performed as described previously (He et al., 2010, Mol. Cell 38, 428-38). Briefly, cells are lysed using ice-cold lysis buffer (HEPES 20 mM pH8, EDTA 0.2 mM, NaCl 0.3 mM, NP40 0.5%, 15% glycerol) for 15 min, and after centrifuging the supernatant was collected. For HA- or Flag-tagged proteins, immunoprecipitations were performed using HA-magnetic beads (Pierce, P188836), or Flag-magnetic beads (Sigma, M8823) for 1.5 hr at 4° C. For other immunoprecipitations, primary antibodies were incubated with lysates for 2 hr followed by Protein A magnetic beads (Life Technologies, 10001D). After 3 washes with wash buffer (HEPES 10 mM pH8, EDTA 0.2 mM, NaCl 0.3 mM, NP40 0.1%, 15% glycerol), the beads were boiled with NuPage LDS sample buffer and the lysates were stored at −20° C.

INS1 cells = assay: H3K27Ac ChIP-seq enhancer landscape in IL1β-treated INS1 cells; assay type: cell-based, rat; settings: 1 hour IL1β
From the text: The experimental procedure for ChIP was as previously described (Barish et al., 2010, Genes Dev 24:2760-5). Briefly, after fixation, nuclei from were isolated, lysed, and sheared with a Diagenode Bioruptor to yield DNA fragment sizes of 200-1,000 bp followed by immunoprecipitation.
The procedure was as previously described (Barish et al., 2010, Genes Dev 24:2760-5). Briefly, short DNA reads were aligned against the mouse mm9 or rat rn4 reference genome using the Illumina CASAVA v1.8.2. Reads were aligned using the Bowtie aligner, allowing up to two mismatches in the read. Only tags that map uniquely to the genome were considered for further analysis. Subsequent peak calling and motif analysis were conducted using HOMER, a software suite for ChIP-seq analysis. The methods for HOMER, described below, have been implemented and are available at http://homer.ucsd.edu. One tag from each unique position was considered to eliminate peaks resulting from clonal amplification of fragments during the ChIP-seq protocol. Peaks were identified by searching for clusters of tags within a sliding 200 bp window, requiring adjacent clusters to be at least 1 kb away from each other. The threshold for the number of tags that determine a valid peak was selected for an FDR <0.001, as empirically determined by repeating the peak finding procedure using randomized tag positions. […]

db/db (B6) mice = assay: db/db (B6) mouse T2D model treatment; assay type: in vivo; settings: for fasted blood glucose levels: Cal 60 μg/kg, iBRD9 10 mg/kg i.p. 3 times a week, 9 weeks; for serum insulin levels: FIG. 10D, fasting / random fed
Description: The following mice strains were from Jackson: VDR KO (B6.129S4-Vdrtm1Mbd/J), B6 db (B6.BKS(D)-Leprdb/J), BKS db (BKS.Cg-Dock7m+/+ Leprdb/J), C57BL6/J. Animals were maintained in a specific pathogen-free animal facility on a 12-hr light-dark cycle at an ambient temperature of 23° C. Water and food were provided ad lib. All animal experiments used age-matched male mice. VDR KO and control littermate mice were maintained on a VDR KO rescue diet containing 21% calcium, 0.67% phosphorus, and 20% lactose supplemented with 4.4 U vitamin D per gram diet.
db/db (B6) mice were grouped based on glucose levels at the age of 5 weeks. Treatments were started from 6 weeks and animals were treated with vehicle (30% 2-Hydroxypropyl-β Cyclodextrin, Sigma, H-107) or drugs 3 times a week. […] For db/db (BKS) mice, treatment started from age of 10 weeks.
(§1) Intraperitoneal GTTs were performed on overnight fasted mice. Blood glucose values were assessed before and at 0, 15, 30, 60, and 120 min after i.p. administration of 0.5 g/kg of glucose. Serum insulin levels were assessed before and at 0, 15, and 60 min after the i.p. administration of glucose using a rat/mouse Insulin ELISA kit (Millipore). IP-ITT assays were performed on mice after a 6 hr fast with an injection of 2 U/kg of insulin (Humalin R, Eli Lilly).
ELISA were performed per manufacturer's instructions: mouse insulin (Millipore, EZRMI-13K), mouse proinsulin (Mercodia, NC9088881).

[1] = tested on: low-dose STZ-treated mice; assay: Low-dose STZ β cell damage mouse model; assay type: in vivo; settings: for glucose control (overnight fasted glucose): i.p. 3 times a week; for serum insulin levels: mouse, in vivo
Description: 8 week old C57B16 male mice were injected intraperitoneally with streptozotocin (Sigma, S0130) at the dose of 50 mg/kg every day for 5 consecutive days.
For immunohistochemistry, FFPE tissues sections were deparaffinized and antigen retrieval performed using Vector Antigen Unmasking buffer (H3301). VectaStain ABC kit and ImmPACT DAB substrate (Vector Lab) were used to develop signal. Antibodies used: Pro-insulin (R&D, MAB13361, 1:100), insulin (Abcam, ab7842, 1:100), MAFA (Novus, NB400-137, 1:50), NKX6-1 (Cell Signaling, 54551, 1:100), and Glucagon (Abcam, ab82270, 1:100). DAPI-containing mounting media ([…] mounting medium for fluorescence) was used for nuclear staining. Immunostaining was visualized by ZEISS 780 confocal microscopy analysis.
as §1

Row | SMILES | PCAF binding to VDR (VDR-PCAF interaction) | reversal of IL1β-induced changes in H3K27 acetylation (INS1 cells) | fasted blood glucose levels (db/db (B6) mice) | serum insulin levels (db/db (B6) mice) | cytokine and chemokine genes in islets (db/db (B6) mice; RNA-seq of islets) | key transcription factors (Nkx6-1, Nr4a1) in islets (db/db (B6) mice; RNA-seq of islets) | Cyp24A1 expression in islets and intestine (db/db (B6) mice; VDR target gene) | glucose tolerance (IPGTT) (db/db (B6) mice; after 9 weeks treatment) | Ins2 mRNA levels in islets (db/db (B6) mice; qPCR) | expression of gluconeogenesis genes (Pepck, Fbp1, G6pase) in liver (db/db (B6) mice; qPCR) | glucose control (overnight fasted glucose) [1] | serum insulin levels [1]
1 | C=C1/C(=C\C=C2/CCC[C@]3(C)[C@@H]([C@H](C)/C=C/[C@@H](O)C4CC4)CC[C@@H]23)C[C@@H](O)C[C@@H]1O [Cal, calcipotriol] | increased | partially reverse the impact of IL1β | modest improvements; also recorded: mildly reduces | higher fasting serum insulin levels | downregulated | upregulation | marked induction | improved glucose clearance; also recorded: better glucose tolerance | trended upwards; also recorded: increased expression of Ins2 | reduced expression; also recorded: repressed | limited to no benefit | increased levels of insulin
2 | CCn1cc(-c2cccc(C(F)(F)F)c2)c2sc(C(=N)NC3CCS(=O)(=O)CC3)cc2c1=O [iBRD9] | increased | partially reverse the impact of IL1β | modest improvements | higher fasting serum insulin levels | – | – | – | – | – | – | limited to no benefit | increased levels of insulin
